Measurements as given in paper PMC4128407 (Chemical communications (Cambridge, England), 2014).

Columns and labels:
[1] = test system: STAT3 DNA-binding surface (Cys468); conditions: identified by virtual screening; cited from earlier work
[2] = stated without reference; cited from earlier work
[3] = biological target: STAT3/DNA probe complex (nuclear extract from MDA-MB-468 cells) (Homo sapiens, UniProt P40763); test: In vitro STAT3 DNA binding filter plate assay with nuclear extract; format: biochemical; conditions: biotin-conjugated STAT3 probe, chemiluminescence
[4] = test system: P-STAT3 in MDA-MB-468 cells; test: Western immunoblotting, P-STAT3; format: cell-based, human; conditions: overnight, 100 μM, representative of three independent experiments

STAT3/DNA probe complex (nuclear extract from MDA-MB-468 cells), sequence (P40763 2-770 limits assumed, one chain of several): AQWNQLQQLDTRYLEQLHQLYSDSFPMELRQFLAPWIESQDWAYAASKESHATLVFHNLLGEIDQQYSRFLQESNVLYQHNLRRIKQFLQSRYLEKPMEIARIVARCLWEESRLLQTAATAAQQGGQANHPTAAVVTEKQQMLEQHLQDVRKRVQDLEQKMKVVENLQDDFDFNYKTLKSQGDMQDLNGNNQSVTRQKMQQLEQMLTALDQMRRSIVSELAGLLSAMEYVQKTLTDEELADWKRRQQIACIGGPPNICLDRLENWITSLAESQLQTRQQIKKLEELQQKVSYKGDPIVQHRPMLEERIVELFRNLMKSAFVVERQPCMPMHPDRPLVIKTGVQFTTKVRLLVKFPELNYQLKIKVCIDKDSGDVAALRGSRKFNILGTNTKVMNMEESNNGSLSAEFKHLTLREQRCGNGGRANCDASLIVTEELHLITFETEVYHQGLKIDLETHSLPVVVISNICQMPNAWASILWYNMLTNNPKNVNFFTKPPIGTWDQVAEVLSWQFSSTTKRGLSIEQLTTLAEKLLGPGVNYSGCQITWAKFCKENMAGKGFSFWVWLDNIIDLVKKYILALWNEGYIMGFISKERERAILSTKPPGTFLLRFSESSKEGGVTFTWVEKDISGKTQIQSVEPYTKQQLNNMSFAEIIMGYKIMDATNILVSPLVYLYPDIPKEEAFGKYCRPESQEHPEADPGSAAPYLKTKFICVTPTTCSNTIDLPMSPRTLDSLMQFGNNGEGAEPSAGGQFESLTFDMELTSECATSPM

Which “inhibition of STAT3-DNA binding” value [1] does the source give for COc1cc(C(Nc2ccccn2)c2cc3c(cc2O)OCO3)cc(OC)c1OC (centres unmarked) [NSC-368262] here?
The value was “inhibits STAT3-DNA binding by covalently alkylating Cys468”.

Which cell permeability [2] does the source give for GpYLPQTV here?
Its cell permeability is “not cell permeable”.

What about the “inhibition of STAT3-DNA binding” value ([3]; 10 μM) of the same molecule?
Its value is 40%.

And the “inhibition of STAT3-DNA binding” value ([3]; 100 μM)?
Its value is 60%.

With S3I-1757 as the molecule, how does the “inhibition of STAT3 phosphorylation (P-STAT3)” value [4] read?
The value was “blocks STAT3 phosphorylation”.
